Results as given in patent US10174067B2, “Type of cytidine derivative and application thereof” (priority 2014, dated 2019).
Marks after values point to notes of the source that are not given here.

Legend:
[1] = for Day 22 Mortality: single IP dose (mg/kg)
Protocol: To determine the growth inhibition effect and toxicity of the cytidine derivative samples of the present invention on the transplanted tumor of nude mice bearing colon cancer HCT-116.
The corresponding amount of test substance was taken in a 5 mL glass tube and dissolved in ethanol with a 5 mm magnetic stirrer for stirring. After dissolving completely, Cremophor EL was added with continuous stirring. The marked amount of saline was added and mixed evenly before use. The volume ratio of ethanol, Cremophor EL, and physiological saline was 5:5:90.
Varieties and lines; Balb/c Nude mice; level: SPF; sex: female.
4.2 Animal inoculation and grouping: Each nude mouse was inoculated subcutaneously with 0.1 mL of cell suspension (3×10^6 cell/mouse) at right side of hind limb in a sterile stale. When the tumor grew to about 60-150 mm^3, the nude mice with similar tumor volume and desirable shape were selected (it would be better to select single spherical shape, no irregular shape or multiple tumors grouped together) for grouping, 6 mice a group. The grouping is as follows:
The control group, namely the model control group, was injected with a mixture of ethanol, Cremophor EL, and saline (5:5:90).
Those mice were weighed three times a week.
All clinical symptoms of each animal should be recorded at the beginning of the test and during the test. The observations should be made at the same time each day.
An animal would be killed by CO2 when its weight loss was more than 20%, when it was about to die, or when its tumor volume exceeded 2800 mm^3. The tumor was separated and weighed, and the animal was autopsied and observed to evaluate and record whether there were pathological changes in the organs.
The data were expressed as Mean±SEM unless specially provided; Non-pairing T test was performed for the data between the two groups. P<0.05 was considered as significant difference.

[2] = system: HCT-116 colon cancer xenografts; test: Tumor growth inhibition of HCT-116 colon cancer xenografts in tumor-bearing nude mice (tumor volume, TGI %, RTV, T/C %); format: in vivo, Balb/c Nude mice
Protocol: 4.1 Tumor cells: colon cancer HCT-116 cells, purchased from the Institute of Cell Biology, Chinese Academy of Sciences. The cells were incubated by F-12 medium (containing 10% FBS) in carbon dioxide incubator at 37° C. and in saturated humidity, with 5% CO2 and 95% air in volume fraction. Before inoculation, the cells at logarithmic phase were taken, and digested with 0.25% trypsin, washed once with PBS and resuspended in PBS for counting. The cells were resuspended in serum-free medium and adjusted to about 3×10^7 cell/mL.
The grouping is as follows:
The formations of tumor at the inoculation site of each group of nude mice were observed. The diameter of tumor nodule (D) was measured three times a week with round hole ruler, and the volume of tumor nodule (V) was calculated according to the following formula: […].
Anti-tumor activity was evaluated by tumor growth inhibition rate TGI (%) and relative tumor proliferation rate T/C (%).
The relative tumor volume (RTV) was calculated as: RTV=Vt/V0, where V0 was the tumor volume when they were grouped and administered, and Vt was the tumor volume at the time of measurement.
The relative proliferation rate T/C (%) was calculated as: […].
TRTV: RTV of the treatment group; CRTV: RTV of the control group.
P<0.05 was considered as significant difference.

[3] = Day 0, G3-G9 groups, single IP dose, Mean±SEM
[4] = Day 4, G3-G9 groups, single IP dose, Mean±SEM
[5] = Day 6, G3-G9 groups, single IP dose, Mean±SEM
[6] = Day 8, G3-G9 groups, single IP dose, Mean±SEM
[7] = Day 11, G3-G9 groups, single IP dose, Mean±SEM
[8] = Day 13, G3-G9 groups, single IP dose, Mean±SEM
[9] = Day 15, G3-G9 groups, single IP dose, Mean±SEM
[10] = Day 18, G3-G9 groups, single IP dose, Mean±SEM
[11] = Day 20, G3-G9 groups, single IP dose, Mean±SEM
[12] = Day 22, G3-G9 groups, single IP dose, Mean±SEM

CC(C)(C)OC(=O)Nc1ccn([C@@H]2O[C@H](COC(=O)Cn3cnc([N+](=O)[O-])c3)[C@@H](O)C2(F)F)c(=O)n1 [Compound G9, 5′-O-[2-(4-nitro-1H-imidazole)acetate]-4-N-(tert-butoxycarbonyl)-2′-deoxy-2′,2′-difluorocytidine]
Weight change rate, Day 0 [1, 3]: 0.00 ± 0.00% | Weight of mice, Day 0 [1, 3]: 20.55 ± 0.56 g | Weight change rate, Day 4 [1, 4]: −0.08 ± 3.14% | Weight of mice, Day 4 [1, 4]: 20.48 ± 0.57 g | Weight change rate, Day 6 [1, 5]: 2.53 ± 2.85% | Weight of mice, Day 6 [1, 5]: 21.02 ± 0.48 g | Weight change rate, Day 8 [1, 6]: 3.54 ± 3.17% | Weight of mice, Day 8 [1, 6]: 21.22 ± 0.51 g | Weight change rate, Day 11 [1, 7]: 5.18 ± 2.98% | Weight of mice, Day 11 [1, 7]: 21.55 ± 0.43 g | Weight change rate, Day 13 [1, 8]: 7.65 ± 3.18% | Weight of mice, Day 13 [1, 8]: 22.05 ± 0.42 g | Weight change rate, Day 15 [1, 9]: 5.50 ± 3.26% | Weight of mice, Day 15 [1, 9]: 21.60 ± 0.33 g | Weight change rate, Day 18 [1, 10]: 3.38 ± 3.55% | Weight of mice, Day 18 [1, 10]: 21.17 ± 0.46 g | Weight change rate, Day 20 [1, 11]: 2.91 ± 3.85% | Weight of mice, Day 20 [1, 11]: 21.05 ± 0.36 g | Weight change rate, Day 22 [1, 12]: 8.18 ± 4.15% | Weight of mice, Day 22 [1, 12]: 22.13 ± 0.47 g | Day 22 Mortality ([1]; Day 22): 0% | clinical symptoms ([1]; after single IP dose, compared with model control group): no significant differences in clinical symptoms | Day 0 (RTV) [2, 3]: 1.00 ± 0.00 | Tumor volume, Day 0 [2, 3]: 42.31 ± 7.52** mm^3 | Day 4 (TGI %) ([2]; Day 4, G3-G9 groups, single IP dose): 80.77% | Day 4 (RTV) [2, 4]: 1.21 ± 0.16 | Tumor volume, Day 4 [2, 4]: 51.25 ± 10.24** mm^3 | Day 6 (TGI %) ([2]; Day 6, G3-G9 groups, single IP dose): 80.67% | Day 6 (RTV) [2, 5]: 1.82 ± 0.40 | Tumor volume, Day 6 [2, 5]: 81.69 ± 23.70** mm^3 | Day 8 (TGI %) ([2]; Day 8, G3-G9 groups, single IP dose): 79.22% | Day 8 (RTV) [2, 6]: 2.72 ± 0.82 | Tumor volume, Day 8 [2, 6]: 109.19 ± 29.60** mm^3 | Day 11 (TGI %) ([2]; Day 11, G3-G9 groups, single IP dose): 76.07% | Day 11 (RTV) [2, 7]: 4.91 ± 1.08 | Tumor volume, Day 11 [2, 7]: 192.42 ± 37.84** mm^3 | Day 13 (TGI %) ([2]; Day 13, G3-G9 groups, single IP dose): 72.93% | Day 13 (RTV) [2, 8]: 8.16 ± 1.87 | Tumor volume, Day 13 [2, 8]: 314.26 ± 60.92** mm^3 | Day 15 (TGI %) ([2]; Day 15, G3-G9 groups, single IP dose): 60.81% | Day 15 (RTV) [2, 9]: 13.83 ± 2.98 | Tumor volume, Day 15 [2, 9]: 553.69 ± 115.02** mm^3 | Day 18 (TGI %) ([2]; Day 18, G3-G9 groups, single IP dose): 51.00% | Day 18 (RTV) [2, 10]: 23.10 ± 5.36 | Tumor volume, Day 18 [2, 10]: 907.03 ± 187.09** mm^3 | Day 20 (TGI %) ([2]; Day 20, G3-G9 groups, single IP dose): 42.39% | Day 20 (RTV) [2, 11]: 31.85 ± 7.62 | Tumor volume, Day 20 [2, 11]: 1221.09 ± 228.29** mm^3 | Day 22 (RTV) [2, 12]: 42.35 ± 10.48 | Tumor volume, Day 22 [2, 12]: 1607.01 ± 297.45** mm^3 | relative tumor volume compared with the model control group ([2]; G4 and G5 Day 4 to Day 18, G7 Day 4 to Day 15 (p<0.05-0.01), G9 only Day 4 (p<0.05)): reduced significantly | maximum value of TGI % ([2]; day of maximum: G3 Day 8, G4 Day 11, G5 Day 11, G9 Day 4, G7 Day 8, single IP): 80.77%

Cl.Nc1ccn([C@@H]2O[C@H](CO)[C@@H](O)C2(F)F)c(=O)n1 [Compound G1, 2′deoxy-2′,2′-difluorocytidine hydrochloride, reference compound]
Day 22 Mortality ([1]; Day 22): 100%
